Tested on: MV-4-11 cells
Test: Gene expression microarray analysis (Affymetrix PrimeView) and GSEA
Type: cell-based, human
Parameters: RFU PODN (11730768_x_at) / Fold change /veh PODN (11730768_x_at) / RFU LINC00158 (11744669_a_at) / Fold change /veh LINC00158 (11744669_a_at) / RFU DUSP10 (11751237_a_at) / Fold change /veh DUSP10 (11751237_a_at) / RFU ID3 (11757404_x_at) / Fold change /veh ID3 (11757404_x_at) / RFU PLEKHG5 (11737974_s_at) / Fold change /veh PLEKHG5 (11737974_s_at) / RFU LRRC4B (11730491_at) / Fold change /veh LRRC4B (11730491_at) / RFU GIMAP4 (11747438_a_at) / Fold change /veh GIMAP4 (11747438_a_at) / RFU KRT8 (11758183_x_at) / Fold change /veh KRT8 (11758183_x_at) / RFU CNN1 (11734310_a_at) / Fold change /veh CNN1 (11734310_a_at) / RFU VPS37D (11726825_at) / Fold change /veh VPS37D (11726825_at) / RFU C10orf10 (11716522_x_at) / Fold change /veh C10orf10 (11716522_x_at) / RFU KIR2DL2 /// KIR2DL4 /// KIR2DL5A /// KIR2DL5B /// KIR2DS1 /// KIR2DS2 /// KIR2DS3 /// KIR2DS4 /// KIR3DL3 /// KIR3DL3 /// KIR3DS1 (11738374_at) / Fold change /veh KIR2DL2 /// KIR2DL4 /// KIR2DL5A /// KIR2DL5B /// KIR2DS1 /// KIR2DS2 /// KIR2DS3 /// KIR2DS4 /// KIR3DL3 /// KIR3DL3 /// KIR3DS1 (11738374_at) / RFU C1QL1 (11718748_at) / Fold change /veh C1QL1 (11718748_at) / RFU TMPRSS4 (11747572_a_at) / Fold change /veh TMPRSS4 (11747572_a_at) / RFU HAMP (11756126_x_at) / Fold change /veh HAMP (11756126_x_at) / RFU RNFT2 (11725882_a_at) / Fold change /veh RNFT2 (11725882_a_at) / RFU NR4A2 (11747474_a_at) / Fold change /veh NR4A2 (11747474_a_at) / RFU ABCC12 (11746883_a_at) / Fold change /veh ABCC12 (11746883_a_at) / RFU TMEM136 (11760407_x_at) / Fold change /veh TMEM136 (11760407_x_at) / RFU CLDN22 /// WWC2 (11732394_at) / Fold change /veh CLDN22 /// WWC2 (11732394_at) / RFU HLA-DPB1 (11760878_x_at) / Fold change /veh HLA-DPB1 (11760878_x_at) / RFU SPINT1 (11716480_a_at) / Fold change /veh SPINT1 (11716480_a_at) / RFU GAP43 (11754022_s_at) / Fold change /veh GAP43 (11754022_s_at) / RFU A4GNT (11735810_at) / Fold change /veh A4GNT (11735810_at) / RFU PRB3 (11715151_x_at) / Fold change /veh PRB3 (11715151_x_at) / RFU TUBB4B (11761932_at) / Fold change /veh TUBB4B (11761932_at) / RFU CAPN14 (11732068_a_at) / Fold change /veh CAPN14 (11732068_a_at) / RFU TMCC2 (11721928_a_at) / Fold change /veh TMCC2 (11721928_a_at) / RFU IRGQ (11745062_a_at) / Fold change /veh IRGQ (11745062_a_at) / RFU FAM174B (11720279_a_at) / Fold change /veh FAM174B (11720279_a_at) / RFU TMPRSS4 (11748680_a_at) / Fold change /veh TMPRSS4 (11748680_a_at) / RFU FAM212B (11763350_a_at) / Fold change /veh FAM212B (11763350_a_at) / RFU PLEKHG5 (11743358_a_at) / Fold change /veh PLEKHG5 (11743358_a_at) / RFU ZSCAN30 (11745921_a_at) / Fold change /veh ZSCAN30 (11745921_a_at) / RFU CMKLR1 (11741424_a_at) / Fold change /veh CMKLR1 (11741424_a_at) / RFU LOC101060620 /// MAPK8IP1 (11723275_at) / Fold change /veh LOC101060620 /// MAPK8IP1 (11723275_at) / RFU SPTSSB (11747773_x_at) / Fold change /veh SPTSSB (11747773_x_at) / RFU PRSS12 (11739890_at) / Fold change /veh PRSS12 (11739890_at) / RFU BIN1 (11741810_x_at) / Fold change /veh BIN1 (11741810_x_at) / RFU WNT11 (11732464_a_at) / Fold change /veh WNT11 (11732464_a_at) / RFU C10orf10 (11716521_a_at) / Fold change /veh C10orf10 (11716521_a_at) / RFU C5orf56 (11738089_at) / Fold change /veh C5orf56 (11738089_at) / RFU CYB561 (11721691_x_at) / Fold change /veh CYB561 (11721691_x_at) / RFU ANKRD19P (11752326_a_at) / Fold change /veh ANKRD19P (11752326_a_at) / RFU OR2T12 /// OR2T33 /// OR2T8 (11738714_s_at) / Fold change /veh OR2T12 /// OR2T33 /// OR2T8 (11738714_s_at) / RFU VCAN (11748164_a_at) / Fold change /veh VCAN (11748164_a_at) / RFU JSRP1 (11732532_at) / Fold change /veh JSRP1 (11732532_at) / RFU KRTAP10-11 (11738290_x_at) / Fold change /veh KRTAP10-11 (11738290_x_at) / RFU MYO3A (11730013_a_at) / Fold change /veh MYO3A (11730013_a_at) / RFU EBF3 (11725865_a_at) / Fold change /veh EBF3 (11725865_a_at) / RFU CAMK2N1 (11719241_x_at) / Fold change /veh CAMK2N1 (11719241_x_at) / RFU C5orf56 (11738088_a_at) / Fold change /veh C5orf56 (11738088_a_at) / RFU OLFML3 (11715873_a_at) / Fold change /veh OLFML3 (11715873_a_at) / RFU LOC100653217 /// NTM (11731650_a_at) / Fold change /veh LOC100653217 /// NTM (11731650_a_at) / RFU MAPK11 (11762145_a_at) / Fold change /veh MAPK11 (11762145_a_at) / RFU FIZ1 (11724087_x_at) / Fold change /veh FIZ1 (11724087_x_at) / RFU OASL (11726364_x_at) / Fold change /veh OASL (11726364_x_at) / RFU SOX15 (11748057_x_at) / Fold change /veh SOX15 (11748057_x_at) / RFU CD79A (11719716_a_at) / Fold change /veh CD79A (11719716_a_at) / RFU HIST1H1D (11736915_at) / Fold change /veh HIST1H1D (11736915_at) / RFU CASKIN2 (11723855_a_at) / Fold change /veh CASKIN2 (11723855_a_at) / RFU LOC730098 (11760151_x_at) / Fold change /veh LOC730098 (11760151_x_at) / RFU OR4N2 (11742367_at) / Fold change /veh OR4N2 (11742367_at) / RFU PRRT2 (11749266_a_at) / Fold change /veh PRRT2 (11749266_a_at) / RFU SNX32 (11753110_a_at) / Fold change /veh SNX32 (11753110_a_at) / RFU CDHR5 (11726645_a_at) / Fold change /veh CDHR5 (11726645_a_at) / RFU RCAN1 (11760418_a_at) / Fold change /veh RCAN1 (11760418_a_at) / RFU FAM167A (11723789_a_at) / Fold change /veh FAM167A (11723789_a_at) / RFU FAM26E (11764081_at) / Fold change /veh FAM26E (11764081_at) / RFU ISYNA1 (11749810_s_at) / Fold change /veh ISYNA1 (11749810_s_at) / RFU ACY1 (11761880_at) / Fold change /veh ACY1 (11761880_at) / RFU 11764098_at / Fold change /veh 11764098_at / RFU SAMD14 (11745864_x_at) / Fold change /veh SAMD14 (11745864_x_at) / RFU NPB (11741838_a_at) / Fold change /veh NPB (11741838_a_at) / RFU TMPRSS6 (11731388_a_at) / Fold change /veh TMPRSS6 (11731388_a_at) / RFU KRTAP10-2 (11738614_at) / Fold change /veh KRTAP10-2 (11738614_at) / RFU ARHGAP8 /// PRR5-ARHGAP8 (11727945_x_at) / Fold change /veh ARHGAP8 /// PRR5-ARHGAP8 (11727945_x_at) / RFU KRTAP5-7 /// NADSYN1 (11734609_at) / Fold change /veh KRTAP5-7 /// NADSYN1 (11734609_at) / RFU RASL12 (11751679_a_at) / Fold change /veh RASL12 (11751679_a_at) / RFU CDKN2B (11736163_a_at) / Fold change /veh CDKN2B (11736163_a_at) / RFU PRF1 (11729649_at) / Fold change /veh PRF1 (11729649_at) / RFU, ZNF638 /// ZNF638-IT1 / Fold change vs veh, ZNF638 /// ZNF638-IT1 / RFU, PANK3 / Fold change vs veh, PANK3 / RFU, SH3YL1 / Fold change vs veh, SH3YL1 / RFU, ZEB2 / Fold change vs veh, ZEB2 / RFU, NRIP1 / Fold change vs veh, NRIP1 / RFU, PTTG1IP / Fold change vs veh, PTTG1IP / RFU, CAPN2 / Fold change vs veh, CAPN2 / RFU, MED14 / Fold change vs veh, MED14 / RFU, SNORA58 / Fold change vs veh, SNORA58 / RFU, C1orf63 / Fold change vs veh, C1orf63 / RFU, LRRFIP1 / Fold change vs veh, LRRFIP1 / RFU, NDUFAF7 / Fold change vs veh, NDUFAF7 / RFU, SLC12A2 / Fold change vs veh, SLC12A2 / RFU, IBTK / Fold change vs veh, IBTK / RFU, ESF1 / Fold change vs veh, ESF1 / Fold change vs veh, TMEM50B / RFU, TAOK1 / Fold change vs veh, TAOK1 / RFU, ACBD3 / Fold change vs veh, ACBD3 / RFU, TMA16 / Fold change vs veh, TMA16 / RFU, RWDD3 / Fold change vs veh, RWDD3 / RFU, BCAT1 / Fold change vs veh, BCAT1 / RFU, EDEM3 / Fold change vs veh, EDEM3 / RFU, TMEM33 / Fold change vs veh, TMEM33 / RFU, WDR75 / Fold change vs veh, WDR75 / RFU, AHCTF1 / Fold change vs veh, AHCTF1 / RFU, TFRC / Fold change vs veh, TFRC / RFU, ZDHHC17 / Fold change vs veh, ZDHHC17 / RFU, NOM1 / Fold change vs veh, NOM1 / RFU, ARL8B / Fold change vs veh, ARL8B / RFU, ZBTB11 / Fold change vs veh, ZBTB11 / RFU, TAMM41 / Fold change vs veh, TAMM41 / RFU, KIAA1704 /// LOC100996395 / Fold change vs veh, KIAA1704 /// LOC100996395 / RFU, ING1 / Fold change vs veh, ING1 / RFU, TRMT61B / Fold change vs veh, TRMT61B / RFU, FUBP3 / Fold change vs veh, FUBP3 / RFU, TP53 / Fold change vs veh, TP53 / RFU, TNKS2 / Fold change vs veh, TNKS2 / RFU, ZFP14 / Fold change vs veh, ZFP14 / RFU, ACTR2 / Fold change vs veh, ACTR2 / RFU, PPP3R1 / Fold change vs veh, PPP3R1 / RFU, PIK3R1 / Fold change vs veh, PIK3R1 / RFU, HNRNPA1 / Fold change vs veh, HNRNPA1 / RFU, RNF170 / Fold change vs veh, RNF170 / RFU, ZNF28 / Fold change vs veh, ZNF28 / RFU, RNGTT / Fold change vs veh, RNGTT / RFU, OGT / Fold change vs veh, OGT / RFU, BRD1 / Fold change vs veh, BRD1 / RFU, MARS / Fold change vs veh, MARS / RFU, ZNF655 / Fold change vs veh, ZNF655 / RFU, FAHD1 / Fold change vs veh, FAHD1 / RFU, BDP1 / Fold change vs veh, BDP1 / RFU, LRRCC1 / Fold change vs veh, LRRCC1 / RFU, ARID1A / Fold change vs veh, ARID1A / RFU, ZNF146 / Fold change vs veh, ZNF146 / RFU, ZNF330 / Fold change vs veh, ZNF330 / RFU, GPN3 / Fold change vs veh, GPN3 / RFU, C9orf123 / Fold change vs veh, C9orf123 / RFU, N4BP2L2 / Fold change vs veh, N4BP2L2 / RFU, ARFIP1 / Fold change vs veh, ARFIP1 / RFU, FAM179B / Fold change vs veh, FAM179B / RFU, BCL10 / Fold change vs veh, BCL10 / RFU, UHRF1BP1L / Fold change vs veh, UHRF1BP1L / RFU, BET1 / Fold change vs veh, BET1 / RFU, CNOT2 / Fold change vs veh, CNOT2 / RFU, ZNF268 / Fold change vs veh, ZNF268 / Fold change vs veh, ZNF507 / RFU, DGCR2 / Fold change vs veh, DGCR2 / RFU, WDSUB1 / Fold change vs veh, WDSUB1 / Fold change vs veh, HSP90B1 /// MIR3652 / RFU, ADSS / Fold change vs veh, ADSS / RFU, GK / Fold change vs veh, GK / RFU, ZNF148 / Fold change vs veh, ZNF148 / RFU, TAF9 / Fold change vs veh, TAF9 / RFU, SLC1A5 / Fold change vs veh, SLC1A5 / RFU, SLMO2 / Fold change vs veh, SLMO2 / RFU, ABCC4 / Fold change vs veh, ABCC4 / RFU, LOC101060439 /// RAP1B / Fold change vs veh, LOC101060439 /// RAP1B / RFU, RFX7 / Fold change vs veh, RFX7 / RFU, GTPBP10 / Fold change vs veh, GTPBP10 / RFU, CNEP1R1 / Fold change vs veh, CNEP1R1 / RFU, BIVM-ERCC5 /// ERCC5 / Fold change vs veh, BIVM-ERCC5 /// ERCC5 / RFU, ILF3 / Fold change vs veh, ILF3 / RFU 11762660_at / Fold change /veh 11762660_at / RFU VCAN (11757783_s_at) / Fold change /veh VCAN (11757783_s_at) / RFU DDX43 (11728927_at) / Fold change /veh DDX43 (11728927_at) / RFU KRT8 (11758188_x_at) / Fold change /veh KRT8 (11758188_x_at) / RFU NKD1 (11759106_at) / Fold change /veh NKD1 (11759106_at) / RFU SRD5A1 (11742802_a_at) / Fold change /veh SRD5A1 (11742802_a_at) / RFU TPSAB1 /// TPSB2 (11721975_s_at) / Fold change /veh TPSAB1 /// TPSB2 (11721975_s_at) / RFU GSTM3 (11746129_a_at) / Fold change /veh GSTM3 (11746129_a_at) / RFU IL23R (11737362_x_at) / Fold change /veh IL23R (11737362_x_at) / RFU TMEM51 (11727254_a_at) / Fold change /veh TMEM51 (11727254_a_at) / RFU PIWIL2 (11732686_x_at) / Fold change /veh PIWIL2 (11732686_x_at) / RFU ORM1 (11744905_x_at) / Fold change /veh ORM1 (11744905_x_at) / RFU CCDC152 (11743942_at) / Fold change /veh CCDC152 (11743942_at) / RFU ECM1 (11717891_a_at) / Fold change /veh ECM1 (11717891_a_at) / RFU IL23R (11748794_a_at) / Fold change /veh IL23R (11748794_a_at) / RFU TNFAIP8L3 (11732012_x_at) / Fold change /veh TNFAIP8L3 (11732012_x_at) / RFU MBOAT4 (11741988_at) / Fold change /veh MBOAT4 (11741988_at) / RFU 11764193_at / Fold change /veh 11764193_at / RFU TMEM53 (11763286_at) / Fold change /veh TMEM53 (11763286_at) / RFU MAGEB2 (11727129_at) / Fold change /veh MAGEB2 (11727129_at) / RFU TMEM200A (11744735_a_at) / Fold change /veh TMEM200A (11744735_a_at) / RFU CCDC152 (11751479_a_at) / Fold change /veh CCDC152 (11751479_a_at) / RFU FAM211A (11726209_a_at) / Fold change /veh FAM211A (11726209_a_at) / RFU RGS16 (11746705_a_at) / Fold change /veh RGS16 (11746705_a_at) / RFU VCAN (11755009_s_at) / Fold change /veh VCAN (11755009_s_at) / RFU RHOB (11743442_s_at) / Fold change /veh RHOB (11743442_s_at) / RFU RGS16 (11720943_a_at) / Fold change /veh RGS16 (11720943_a_at) / RFU RGS16 (11720944_at) / Fold change /veh RGS16 (11720944_at) / RFU, VPS4B / Fold change vs veh, VPS4B / RFU, CREB1 / Fold change vs veh, CREB1 / RFU, DNAJC13 / Fold change vs veh, DNAJC13 / RFU, GNAQ / Fold change vs veh, GNAQ / RFU, CDK5R1 / Fold change vs veh, CDK5R1 / RFU, ZRANB3 / Fold change vs veh, ZRANB3 / RFU, CUL4A / Fold change vs veh, CUL4A / RFU, CCNY / Fold change vs veh, CCNY / RFU, UFL1 / Fold change vs veh, UFL1 / RFU, COG3 / Fold change vs veh, COG3 / RFU, DIAPH2 / Fold change vs veh, DIAPH2 / RFU, SKA2 / Fold change vs veh, SKA2 / RFU, AFF3 / Fold change vs veh, AFF3 / RFU, LMF1 / Fold change vs veh, LMF1 / RFU, IPO11 / Fold change vs veh, IPO11 / RFU, DFFB / Fold change vs veh, DFFB / RFU, FOXP1 / Fold change vs veh, FOXP1 / RFU, CARD8 / Fold change vs veh, CARD8 / RFU, STRN3 / Fold change vs veh, STRN3 / RFU, ADK / Fold change vs veh, ADK / RFU, RASSF2 / Fold change vs veh, RASSF2 / RFU, WIPF1 / Fold change vs veh, WIPF1 / RFU, LARP1B / Fold change vs veh, LARP1B / RFU, RASA1 / Fold change vs veh, RASA1 / RFU, RB1 / Fold change vs veh, RB1 / RFU, PPFIA1 / Fold change vs veh, PPFIA1 / RFU, MAT2A / Fold change vs veh, MAT2A / RFU, CCT5 / Fold change vs veh, CCT5 / RFU, WDR92 / Fold change vs veh, WDR92 / RFU, CUX1 / Fold change vs veh, CUX1 / RFU, TTC7A / Fold change vs veh, TTC7A / RFU, TMEM135 / Fold change vs veh, TMEM135 / RFU, DEPTOR / Fold change vs veh, DEPTOR / RFU, CPM / Fold change vs veh, CPM / RFU, DNAJB6 / Fold change vs veh, DNAJB6 / RFU, CACNA2D3 / Fold change vs veh, CACNA2D3 / RFU, DTX4 / Fold change vs veh, DTX4 / RFU, TFCP2 / Fold change vs veh, TFCP2 / RFU, GMCL1 /// GMCL1P1 / Fold change vs veh, GMCL1 /// GMCL1P1 / RFU, AEBP2 / Fold change vs veh, AEBP2 / RFU, SNHG1 /// SNORD22 /// SNORD25 /// SNORD26 /// SNORD27 /// SNORD28 /// SNORD29 /// SNORD31 / Fold change vs veh, SNHG1 /// SNORD22 /// SNORD25 /// SNORD26 /// SNORD27 /// SNORD28 /// SNORD29 /// SNORD31 / Fold change (Aza/veh), C12orf56 (ProbeSet 11735607_a_at) / Fold change (ACY-1035/veh), C12orf56 (ProbeSet 11735607_a_at) / Fold change (Aza/veh), FGFR1OP (ProbeSet 11751329_s_at) / Fold change (ACY-1035/veh), FGFR1OP (ProbeSet 11751329_s_at) / Fold change (Aza/veh), VPS36 (ProbeSet 11739960_a_at) / Fold change (ACY-1035/veh), VPS36 (ProbeSet 11739960_a_at) / RFU SYPL1 (11715823_x_at) / Fold change /veh SYPL1 (11715823_x_at) / RFU IGFBP7 (11715501_s_at) / Fold change /veh IGFBP7 (11715501_s_at) / RFU REEP3 (11722064_at) / Fold change /veh REEP3 (11722064_at) / RFU IGLL1 (11728026_x_at) / Fold change /veh IGLL1 (11728026_x_at): dose or concentration left out as unconfirmed
Conditions: ProbeSet 11728314_at; LIST B

## Nc1ccc(-c2cccs2)cc1NC(=O)c1ccc2c(c1)cc(C1CC1)n2CCN1CCOCC1 [ACY-1035]
  RFU, ZNF148: 188.07 RFU
